Assay results taken from patent EP1306084A1, “Compositions for the control of parasitic infestations in fish” (Alpharma AS, priority 1998, dated 1999).
Read-outs that look alike come from different tables or passages of the source.

How the values were obtained:
[1] = system: sea lice; experiment: Oral or bath treatment in freshwater before sea transfer, sea lice counts after natural infection (Example 5); format: in vivo, sea trout (Salmo trutta); conditions: oral 4 mg per kg daily for 5 days or bath 5 ppm for 30 minutes
Method: The treatment dosage was 9 mg hexaflumuron per kg fish per day for 10 days. This is indicated by "Groups/Timepoints" in the figure; • Figure 2 relates to the trial in Example 2 that was carried out on Atlantic salmon (Salmo salar). […] The treatment dosage varied between 3 - 9 mg hexaflumuron and 9- 12 mg fluazuron per kg fish per day for 7 days. This is indicated by "Groups/Timepoints" in the diagram. […] The treated groups are compared to an untreated control group. The treatment dosage was 4 mg hexaflumuron per kg fish per day for 5 days. This is indicated by "Groups/Timepoints" in the figure. Cage 2 = controls, Cage 4-6 = treated groups, 16.6.97 = time point for sea transfer and 5.8.97= controls treated by bathing with deltamethrin; • Figure 4 relates to the trial described in Example 5, which was carried out on sea trout (Salmo trutta). […] The treated groups are compared with an untreated control group. The dosage for oral treatment was 4 mg hexaflumuron per kilo fish per day for 5 days, and 5 ppm hexaflumuron as a 30 minute bath treatment. This is indicated by "Groups/Timepoints" in the figure. Cage 1.4 = Controls, cage 1.3 = Oral treatment, cage 1.2 = Bath treatment. […] The treated groups are compared with an untreated control group, and one group that has been treated orally with teflubenzuron (10 mg/kg of teflubenzuron per kg fish per day for 7 days). The dosage for oral treatment was 5.6 mg hexaflumuron per kg fish per day for 7 days, and 5 ppm hexaflumuron as a 30 minute bath treatment. […] End of treatment: 22.10.97, Sea transfer: 23.10.97. T1 = 3 weeks post end of treatment, T2 = 5 weeks post end of treatment, T3 = 9 weeks post end of treatment, T4 = 12 weeks post end of treatment; • Figure 6 relates to the trial in Example 6 at time points 4-6, with the same trial parameters as for Figure 5. […]
About 300 sea trout (Salmo trutta) of an average weight of 160 grams were divided into three groups of 100 fish each. […] Lice from 6-10 fish from each cage were counted every third week to assess whether there was any difference in the number of lice between the cages. […]

[2] = system: Anilocra physodes; experiment: Oral hexaflumuron against infestation with a parasitic isopod (Example 9); format: in vivo, Sea bass (Dicentrarchus labrax)
Method: In this trial, hexaflumuron was administered orally in order to test the effect against infestations with the parasitic isopod Anilocra physodes in Sea bass (Dicentrarchus labrax).
150,000 Sea bass (Dicentrarchus labrax) having an average weight of 2 grams were transferred from a hatchery facility and distributed into 5 cages each containing 30,000 fish. The trial was carried out in a food fish facility in the Mediterranean where the sea water temperature varied in the range of 15.0-25.0°C throughout the trial period.
Fish in four cages were fed medicated feed at an amount corresponding to 0.5% of the total biomass per day for 6 days, corresponding to 10 mg hexaflumuron/kg fish per day. One week after the medication and subsequently every three weeks the number of parasites on the fish was monitored.

[3] = Chemical analysis of muscle with skin after injection (Example 7); format: in vivo, salmon (Salmo salar); conditions: fish, 50 mg/kg; for concentration at 8280 h: T11, 345 days after injection, read-out: muscle/skin concentration of hexaflumuron
Method: Tissue samples (muscle with skin) for chemical analysis were collected from three fish at each sample point in time throughout the entire trial period in order to monitor the concentrations of hexaflumuron. At sea water transfer, the muscle/skin concentrations were between 2 and 3 µg hexaflumuron per g of tissue. […] At T8, i.e. 238 days after vaccination, the concentration of hexaflumuron varied between 0.49 and 0.53 µg per g of tissue. At T11, i.e. 345 days after injection (322 days after sea water transfer) the muscle/skin concentration of hexaflumuron in the two groups was 0.13 and 0.11 µg/g tissue, respectively. At the same point in time, different stages of sea lice had become established on these fish.

[4] = system: sea lice; experiment: Injection of hexaflumuron in furunculosis vaccine formulations, sea lice counts after sea water transfer (Example 7); format: in vivo, salmon (Salmo salar); conditions: for average number of lice: control group 19.2
Method: The treatment dosage was 9 mg hexaflumuron per kg fish per day for 10 days. This is indicated by "Groups/Timepoints" in the figure; • Figure 2 relates to the trial in Example 2 that was carried out on Atlantic salmon (Salmo salar). […] The treatment dosage varied between 3 - 9 mg hexaflumuron and 9- 12 mg fluazuron per kg fish per day for 7 days. This is indicated by "Groups/Timepoints" in the diagram. […] The treated groups are compared to an untreated control group. The treatment dosage was 4 mg hexaflumuron per kg fish per day for 5 days. This is indicated by "Groups/Timepoints" in the figure. Cage 2 = controls, Cage 4-6 = treated groups, 16.6.97 = time point for sea transfer and 5.8.97= controls treated by bathing with deltamethrin; • Figure 4 relates to the trial described in Example 5, which was carried out on sea trout (Salmo trutta). […] The treated groups are compared with an untreated control group. The dosage for oral treatment was 4 mg hexaflumuron per kilo fish per day for 5 days, and 5 ppm hexaflumuron as a 30 minute bath treatment. This is indicated by "Groups/Timepoints" in the figure. Cage 1.4 = Controls, cage 1.3 = Oral treatment, cage 1.2 = Bath treatment. […] The treated groups are compared with an untreated control group, and one group that has been treated orally with teflubenzuron (10 mg/kg of teflubenzuron per kg fish per day for 7 days). The dosage for oral treatment was 5.6 mg hexaflumuron per kg fish per day for 7 days, and 5 ppm hexaflumuron as a 30 minute bath treatment. […] End of treatment: 22.10.97, Sea transfer: 23.10.97. T1 = 3 weeks post end of treatment, T2 = 5 weeks post end of treatment, T3 = 9 weeks post end of treatment, T4 = 12 weeks post end of treatment; • Figure 6 relates to the trial in Example 6 at time points 4-6, with the same trial parameters as for Figure 5. T5 = 15 weeks post end of treatment, T6 = 17 weeks post end of treatment. Cage 3 and 4 were treated by bath with deltamethrin after sea lice counting at T4 (12.01.98); • Figure 7 relates to the trial described in Example 7 where salmon were injected on 17.12.97 with two formulations (groups L and R, respectively) of hexaflumuron and a vaccine formulation without hexaflumuron (control). […] The vaccinated fish was transferred to sea water on 09.01.98; • Figure 8 summarises the trial of Example 8 where salmon smolts were injected with 9 different active substances on 08.07.98. Only results for Moxidectin (Mox.), Lufenuron (Luf.) and hexaflumuron in Apoject 1-Fural (Hex.Apo) and in animal oil (Hex.oil) are shown, and • Figure 9 summarises the trial described in Example 10 where salmon were injected on 03.12.97 with 3 different formulations of hexaflumuron (Hexa 1, Hexa 2 and Hexa 3). The fish were transferred to sea water at T0.
About 80 salmon (Salmo salar) at an average weight of about 80 grams were divided into two groups and injected with two different formulations of hexaflumuron at a dosage of about 50 mg/kg. Both formulations were prepared based upon a vaccine against furunculosis containing inactivated cells of Aeromonas salmonicida subsp. salmonicida. Hexaflumuron was mixed/formulated into the vaccine in two different manners to study the effect of the formulation on the depot effect in the fish and on the stability characteristics of the vaccine emulsions.
The fish were dosed (injected) while they were in freshwater and 23 days after the administration they were transferred to sea water (mini-cages). In parallel with the two groups, a third group comprising 40 fish of the same origin and size was vaccinated with a conventional vaccine without hexaflumuron. This group was kept in the same tank (freshwater) and cage (sea water) as the "hexaflumuron injected" groups and served as negative control/reference group in respect of sea lice infestations. Prior to the start of the trial, the groups were marked by fin cutting. The water temperature varied between 3.8 and 16.0°C throughout the trial. […]

O=C(NC(=O)c1c(F)cccc1F)Nc1cc(Cl)c(OC(F)(F)C(F)F)c(Cl)c1 [hexaflumuron]
protection after transfer to sea [1]: at least 8 weeks | number of lice larger than Chalimus II versus control ([1]; 2, 5 and 8 weeks after sea transfer): significantly lower | parasites found in the treated groups ([2]; one week after the medication period (10 mg/kg fish per day, 6 days), control 0.1 louse): no parasites were found | period of effect against Anilocra physodes after medication ([2]; oral 10 mg/kg fish per day for 6 days): about 3 weeks | average parasites in the treated groups ([2]; three weeks after the medication period, control 0.4 louse): 0.15 louse | concentration at 5712 h ([3]; T8, 238 days after vaccination, read-out: concentration of hexaflumuron in muscle/skin): 490 to 530 ng/g | concentration at 8280 h ([3]; first-named group): 130 ng/g | concentration at 8280 h ([3]; second-named group): 110 ng/g | concentration at 552 h ([3]; at sea water transfer (23 days after injection of about 50 mg/kg), read-out: muscle/skin concentrations): 2000 to 3000 ng/g | average number of lice ([4]; T8, first-named treated group (formulation)): 4.8 | average number of lice ([4]; T8, second-named treated group (formulation)): 1.8 | number of sea lice versus control group ([4]; T9 and T10, treated groups): significant differences | number of lice versus control group ([4]; T11, after ALPHA MAX bath of all groups): significantly less lice | excellent protection against sea lice infestation after sea water transfer ([4]; injection about 50 mg/kg): 7 months | partially protective effect after sea water transfer ([4]; injection about 50 mg/kg): ≤ 10.5 months | time after sea water transfer until sea lice were first recorded (T8) ([4]; injection about 50 mg/kg, two treated groups, control had lice from T5 (126 days)): 215 days
